“And” between values parts separate entries of the source, which are not always exact repeats. Equal values may be shown once. “Also recorded” adds a separate entry of the source.
How the values were obtained:
[1] = molecular target: 38 other methyltransferases (e.g DNMTs, MLL1-4 complexes, EZH1 and EZH2 complexes, NRMTs, NSD, SUVs, SMYs, SETs, PRDM9), and other members of the PRMT family; test: Methyltransferase selectivity panel, 3H-SAM radioligand with filtration binding; assay type: biochemical
Experimental: For in vitro assays, the compound was stored in a 10 mM solution in DMSO. For in vivo assays, PRT382 was dissolved in a 0.5% methylcellulose, 0.1% tween solution, and administered as oral gavage. For Pharmacokinetic studies, PRT382 was formulated in 0.5% carboxymethylcellulose sodium salt + 0.5%Tween80 as a 1 mg/mL suspension for 10 mg/kg and was administered in a 10 mL/kg dose volume by oral gavage to CD-1 mice. Blood was collected at various time points after dosing into EDTA-K2 tubes, placed on ice, and stored at −80 °C prior to analysis by LC-MS/MS. For biochemical potency and selectivity, PRT382 was solubilized in 100% DMSO and diluted serially threefold. For assessment of selectivity, enzyme activity against a panel of 37 methyltransferases was evaluated using 3H-SAM as a radioligand probe with filtration binding. PRT382 was tested in duplicate at a final concentration of 10 µM. The percent of enzyme activity relative to DMSO control condition was determined for each enzyme.

[2] = Pharmacokinetics in rats (clearance, oral bioavailability); assay type: in vivo
primary CLL cells = test: Proliferation of primary IGHV-U CLL cells, MTS assay, 72 h, with and without CpG; assay type: cell-based, human; conditions: for Normalized A490: +CpG, individual patients' primary CLL cells, normalized to -CpG dose 0
Excerpt: Our research complies with all relevant ethical regulations. De-identified human CLL cells were isolated as previously described after obtaining informed consent on protocols approved by The Ohio State University Cancer Institutional Review Board in accordance with the Declaration of Helsinki. All patients examined had CLL as defined by the 2008 IWCLL criteria. Sex and age of the patients who provided samples was not available. Human peripheral blood mononuclear cells (PBMC) were isolated from CLL patients using Ficoll density gradient centrifugation. (Ficoll-Paque Plus; Amersham Biosciences Inc, Piscataway, NJ). Enriched B-cell fractions were prepared using the RosetteSep™ B-cell kit (STEMCELL Technologies, Vancouver, Canada) according to the manufacturer’s instructions. Isolated cells were incubated in RPMI 1640 media (Invitrogen, Grand Island, NY) supplemented with 10% heat-inactivated fetal bovine serum (Sigma-Aldrich, St. Louis, MO), 2 mM L-glutamine (Invitrogen), and 100 U/mL penicillin/100 μg/mL streptomycin (Sigma-Aldrich) at 37 °C in an atmosphere of 5% CO2. The purity of enriched populations of CLL was routinely checked using CD19-PE (BD Pharmingen, Billerica, MA) staining by flow cytometry.
(§1) Cell proliferation was assessed via MTS (3-[4,5-dimethylthiazol-2-yl]-5-[3-carboxymethoxyphenyl]-2-[4-sulfophenyl]-2H-tetrazolium) assay (Sigma), using the tetrazolium dye […]. Cell apoptosis was evaluated by Annexin V-FITC or PE and propidium iodide (PI) staining using FC500 cytometer (Beckman-Coulter, Indianapolis, IN) following the manufacturer’s procedure (BD Pharmingen, Billerica, MA)[55]. For cell cycle analysis, cells were fixed with cold ethanol overnight and then stained before analysis with 30 μg/mL propidium iodide (Invitrogen) and 200 μg/mL RNase (Sigma-Aldrich) in 0.1 % v/v Triton X-100 (Sigma-Aldrich). Cell cycle data analysis was performed using ModFit LT software (Verity Software House, Topsham, ME).

Mec-1 cells = test: Cell growth curves over 12 days, Mec-1; assay type: cell-based
Experimental: Live cells/mL were counted on days 3, 6, 10, and 12. […] The split factor was calculated at indicated time points by dividing the counted cells/mL by 3E5. Cell growth was extrapolated over time by multiplying the subsequent cell count by the previous split factor. Cell growth is plotted as fold change relative to DMSO-treated cells.

KARPAS-422 = test: Anti-proliferative activity, MTS assay, KARPAS-422; assay type: cell-based; conditions: Homo sapiens, DLBCL, read-out: PRT382 IC50 (anti-proliferative)
Experimental: as §1

[3] = Mec-1, continuous exposure over 12 days

CON=c1nc[nH]c2c1ccn2[C@@H]1O[C@H]([C@H](O)c2ccc(Cl)c(Cl)c2)[C@@H](O)[C@H]1O.Cl [PRT382, (2 R,3 S,4 R,5 R)-2-[(R)-(3,4-dichlorophenyl)-hydroxy-methyl]-5-[(4Z)-4-methoxyimino-1H-pyrrolo[2,3-d]pyrimidin-7-yl]tetrahydrofuran-3,4-diol hydrochloride]
IC50 ([1]; 38 other methyltransferases and other PRMT family members, read-out: IC50 against other methyltransferases): > 1000 nM
inhibition of other tested methyltransferases ([1]; PRT382 at 10 uM): ≤ 20%
clearance [2]: low
bioavailability ([2]; rat, in vivo, po, read-out: oral bioavailability (F%)): 70 to 80%
Normalized A490 (primary CLL cells; PRT382 0.001 μM): 3.307 and 4.074 and 2.806 and 1.916 and 4.967 and 4.310 and 1.926 and 2.473 and 1.595 and 1.924
Normalized A490 (primary CLL cells; PRT382 0.010 μM): 3.718 and 3.941 and 2.668 and 1.775 and 4.704 and 4.675 and 1.969 and 2.468 and 1.587
Normalized A490 (primary CLL cells; PRT382 0.100 μM): 3.022 and 3.734 and 2.874 and 1.799 and 4.461 and 3.405 and 1.501 and 2.532 and 1.373
Normalized A490 (primary CLL cells; PRT382 1.000 μM): 2.691 and 3.811 and 2.801 and 1.761 and 4.387 and 2.568 and 1.496 and 2.524 and 1.293
Normalized A490 (primary CLL cells; PRT382 10.000 μM): 1.699 and 2.509 and 3.622 and 2.474 and 1.561 and 4.249 and 2.269 and 1.136 and 2.309
proliferative potential of primary CLL cells (primary CLL cells; n = 12 IGHV-U patients, 72 h, with and without TLR9 stimulation (CpG)): Dose-dependent decrease in proliferation; also recorded: dose-dependent reduction in proliferative potential
anti-proliferative potency compared to JNJ-64619178, LLY-283, and PF-06855800 (Mec-1 cells; Mec-1): similar-to-reduced
Rep 1 Live Cells [Fold Change] (Mec-1 cells; Mec-1, 1 nM, day 0): 1 Fold Change
Rep 2 Live Cells [Fold Change] (Mec-1 cells; Mec-1, 1 nM, day 0): 1 Fold Change
Rep 3 Live Cells [Fold Change] (Mec-1 cells; Mec-1, 1 nM, day 0): 1 Fold Change
Rep 1 Live Cells [Fold Change] (Mec-1 cells; Mec-1, 1 nM, day 3): 5.48 Fold Change
Rep 2 Live Cells [Fold Change] (Mec-1 cells; Mec-1, 1 nM, day 3): 7.38 Fold Change
Rep 3 Live Cells [Fold Change] (Mec-1 cells; Mec-1, 1 nM, day 3): 6.82 Fold Change
Rep 1 Live Cells [Fold Change] (Mec-1 cells; Mec-1, 1 nM, day 6): 47.7 Fold Change
Rep 2 Live Cells [Fold Change] (Mec-1 cells; Mec-1, 1 nM, day 6): 61 Fold Change
Rep 3 Live Cells [Fold Change] (Mec-1 cells; Mec-1, 1 nM, day 6): 62.4 Fold Change
Rep 1 Live Cells [Fold Change] (Mec-1 cells; Mec-1, 1 nM, day 10): 655 Fold Change
Rep 2 Live Cells [Fold Change] (Mec-1 cells; Mec-1, 1 nM, day 10): 809 Fold Change
Rep 3 Live Cells [Fold Change] (Mec-1 cells; Mec-1, 1 nM, day 10): 898 Fold Change
Rep 1 Live Cells [Fold Change] (Mec-1 cells; Mec-1, 1 nM, day 12): 2650 Fold Change
Rep 2 Live Cells [Fold Change] (Mec-1 cells; Mec-1, 1 nM, day 12): 2940 Fold Change
Rep 3 Live Cells [Fold Change] (Mec-1 cells; Mec-1, 1 nM, day 12): 4480 Fold Change
Rep 1 Live Cells [Fold Change] (Mec-1 cells; Mec-1, 10 nM, day 0): 1 Fold Change
Rep 2 Live Cells [Fold Change] (Mec-1 cells; Mec-1, 10 nM, day 0): 1 Fold Change
Rep 3 Live Cells [Fold Change] (Mec-1 cells; Mec-1, 10 nM, day 0): 1 Fold Change
Rep 1 Live Cells [Fold Change] (Mec-1 cells; Mec-1, 10 nM, day 3): 8.13 Fold Change
Rep 2 Live Cells [Fold Change] (Mec-1 cells; Mec-1, 10 nM, day 3): 8.43 Fold Change
Rep 3 Live Cells [Fold Change] (Mec-1 cells; Mec-1, 10 nM, day 3): 7.78 Fold Change
Rep 1 Live Cells [Fold Change] (Mec-1 cells; Mec-1, 10 nM, day 6): 70.5 Fold Change
Rep 2 Live Cells [Fold Change] (Mec-1 cells; Mec-1, 10 nM, day 6): 65.2 Fold Change
Rep 3 Live Cells [Fold Change] (Mec-1 cells; Mec-1, 10 nM, day 6): 77.4 Fold Change
Rep 1 Live Cells [Fold Change] (Mec-1 cells; Mec-1, 10 nM, day 10): 909 Fold Change
Rep 2 Live Cells [Fold Change] (Mec-1 cells; Mec-1, 10 nM, day 10): 1080 Fold Change
Rep 3 Live Cells [Fold Change] (Mec-1 cells; Mec-1, 10 nM, day 10): 887 Fold Change
Rep 1 Live Cells [Fold Change] (Mec-1 cells; Mec-1, 10 nM, day 12): 3770 Fold Change
Rep 2 Live Cells [Fold Change] (Mec-1 cells; Mec-1, 10 nM, day 12): 3720 Fold Change
Rep 3 Live Cells [Fold Change] (Mec-1 cells; Mec-1, 10 nM, day 12): 6410 Fold Change
Rep 1 Live Cells [Fold Change] (Mec-1 cells; Mec-1, 100 nM, day 0): 1 Fold Change
Rep 2 Live Cells [Fold Change] (Mec-1 cells; Mec-1, 100 nM, day 0): 1 Fold Change
Rep 3 Live Cells [Fold Change] (Mec-1 cells; Mec-1, 100 nM, day 0): 1 Fold Change
Rep 1 Live Cells [Fold Change] (Mec-1 cells; Mec-1, 100 nM, day 3): 6.3 Fold Change
Rep 2 Live Cells [Fold Change] (Mec-1 cells; Mec-1, 100 nM, day 3): 5.17 Fold Change
Rep 3 Live Cells [Fold Change] (Mec-1 cells; Mec-1, 100 nM, day 3): 4.6 Fold Change
Rep 1 Live Cells [Fold Change] (Mec-1 cells; Mec-1, 100 nM, day 6): 14 Fold Change
Rep 2 Live Cells [Fold Change] (Mec-1 cells; Mec-1, 100 nM, day 6): 17.1 Fold Change
Rep 3 Live Cells [Fold Change] (Mec-1 cells; Mec-1, 100 nM, day 6): 13.3 Fold Change
Rep 1 Live Cells [Fold Change] (Mec-1 cells; Mec-1, 100 nM, day 10): 63 Fold Change
Rep 2 Live Cells [Fold Change] (Mec-1 cells; Mec-1, 100 nM, day 10): 155 Fold Change
Rep 3 Live Cells [Fold Change] (Mec-1 cells; Mec-1, 100 nM, day 10): 73.7 Fold Change
Rep 1 Live Cells [Fold Change] (Mec-1 cells; Mec-1, 100 nM, day 12): 100 Fold Change
Rep 2 Live Cells [Fold Change] (Mec-1 cells; Mec-1, 100 nM, day 12): 297 Fold Change
Rep 3 Live Cells [Fold Change] (Mec-1 cells; Mec-1, 100 nM, day 12): 92.2 Fold Change
Rep 1 Live Cells [Fold Change] (Mec-1 cells; Mec-1, 1 µM, day 0): 1 Fold Change
Rep 2 Live Cells [Fold Change] (Mec-1 cells; Mec-1, 1 µM, day 0): 1 Fold Change
Rep 3 Live Cells [Fold Change] (Mec-1 cells; Mec-1, 1 µM, day 0): 1 Fold Change
Rep 1 Live Cells [Fold Change] (Mec-1 cells; Mec-1, 1 µM, day 3): 3.87 Fold Change
Rep 2 Live Cells [Fold Change] (Mec-1 cells; Mec-1, 1 µM, day 3): 4.23 Fold Change
Rep 3 Live Cells [Fold Change] (Mec-1 cells; Mec-1, 1 µM, day 3): 5.4 Fold Change
Rep 1 Live Cells [Fold Change] (Mec-1 cells; Mec-1, 1 µM, day 6): 7.67 Fold Change
Rep 2 Live Cells [Fold Change] (Mec-1 cells; Mec-1, 1 µM, day 6): 5.09 Fold Change
Rep 3 Live Cells [Fold Change] (Mec-1 cells; Mec-1, 1 µM, day 6): 4.33 Fold Change
Rep 1 Live Cells [Fold Change] (Mec-1 cells; Mec-1, 1 µM, day 10): 8.99 Fold Change
Rep 2 Live Cells [Fold Change] (Mec-1 cells; Mec-1, 1 µM, day 10): 4.86 Fold Change
Rep 3 Live Cells [Fold Change] (Mec-1 cells; Mec-1, 1 µM, day 10): 2.73 Fold Change
Rep 1 Live Cells [Fold Change] (Mec-1 cells; Mec-1, 1 µM, day 12): 3.31 Fold Change
Rep 2 Live Cells [Fold Change] (Mec-1 cells; Mec-1, 1 µM, day 12): 4.55 Fold Change
Rep 3 Live Cells [Fold Change] (Mec-1 cells; Mec-1, 1 µM, day 12): 1.12 Fold Change
dose at which growth inhibition begins (Mec-1 cells; [3]): 100 nM
effect on growth potential (cell growth) (Mec-1 cells; [3]): time and dose-dependent growth inhibition
IC50 (KARPAS-422): 23 nM
